Read-outs that look alike come from different tables or passages of the source.
Target: T1, human sweet receptor (T1R2 and T1R3) (Homo sapiens, UniProt Q7RTX0+Q8TE23)
T1 construct: expressed in transfected cells; host or cells: HEK293 cells co-expressing Galpha15
T1 sequence (Q8TE23 20-839): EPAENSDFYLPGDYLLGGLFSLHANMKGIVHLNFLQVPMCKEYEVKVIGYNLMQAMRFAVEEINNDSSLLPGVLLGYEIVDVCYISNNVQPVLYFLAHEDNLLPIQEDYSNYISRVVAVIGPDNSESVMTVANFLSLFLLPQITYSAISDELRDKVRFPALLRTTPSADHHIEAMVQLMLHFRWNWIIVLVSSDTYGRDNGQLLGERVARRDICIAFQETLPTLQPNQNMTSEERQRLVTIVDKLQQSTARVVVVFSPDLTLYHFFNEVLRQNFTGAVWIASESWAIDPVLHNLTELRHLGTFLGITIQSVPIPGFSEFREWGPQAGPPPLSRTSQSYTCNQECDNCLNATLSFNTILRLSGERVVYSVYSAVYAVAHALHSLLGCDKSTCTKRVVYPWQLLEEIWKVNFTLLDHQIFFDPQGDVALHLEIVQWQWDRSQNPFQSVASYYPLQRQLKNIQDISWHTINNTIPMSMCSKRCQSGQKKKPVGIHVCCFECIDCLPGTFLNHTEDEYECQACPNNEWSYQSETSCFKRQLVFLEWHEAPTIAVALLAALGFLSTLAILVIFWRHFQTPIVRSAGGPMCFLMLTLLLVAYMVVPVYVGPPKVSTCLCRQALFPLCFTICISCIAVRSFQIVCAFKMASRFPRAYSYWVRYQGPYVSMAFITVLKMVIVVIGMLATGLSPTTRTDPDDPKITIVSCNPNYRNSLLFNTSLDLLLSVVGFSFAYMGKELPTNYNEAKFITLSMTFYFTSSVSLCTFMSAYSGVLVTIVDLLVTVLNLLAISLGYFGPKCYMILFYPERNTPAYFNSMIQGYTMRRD
T1 sequence (Q7RTX0 21-852): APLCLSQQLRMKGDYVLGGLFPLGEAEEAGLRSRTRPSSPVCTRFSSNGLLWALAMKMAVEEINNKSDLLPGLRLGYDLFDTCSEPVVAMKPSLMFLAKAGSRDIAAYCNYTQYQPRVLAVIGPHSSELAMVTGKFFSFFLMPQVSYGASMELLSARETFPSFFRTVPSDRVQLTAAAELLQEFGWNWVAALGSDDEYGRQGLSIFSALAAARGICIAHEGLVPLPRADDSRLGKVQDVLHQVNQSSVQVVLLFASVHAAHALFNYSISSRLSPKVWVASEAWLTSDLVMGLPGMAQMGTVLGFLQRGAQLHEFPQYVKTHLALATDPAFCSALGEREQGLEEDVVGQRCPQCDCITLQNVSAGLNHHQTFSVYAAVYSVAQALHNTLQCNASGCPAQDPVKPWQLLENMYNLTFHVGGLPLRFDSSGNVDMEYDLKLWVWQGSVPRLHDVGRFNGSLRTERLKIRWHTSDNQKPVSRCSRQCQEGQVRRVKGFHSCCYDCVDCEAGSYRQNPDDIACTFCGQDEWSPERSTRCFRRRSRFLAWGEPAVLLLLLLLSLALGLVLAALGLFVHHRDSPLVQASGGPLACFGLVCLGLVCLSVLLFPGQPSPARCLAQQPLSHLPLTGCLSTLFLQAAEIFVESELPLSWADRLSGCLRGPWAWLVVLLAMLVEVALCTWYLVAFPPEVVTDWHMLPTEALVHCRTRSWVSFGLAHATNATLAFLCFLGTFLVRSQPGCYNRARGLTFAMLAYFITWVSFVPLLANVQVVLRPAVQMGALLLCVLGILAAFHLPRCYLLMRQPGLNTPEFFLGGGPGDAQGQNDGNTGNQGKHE
Assay: Calcium imaging (Fluo3AM/FLIPR) sweet receptor enhancer assay in hT1R2/hT1R3-HEK293 Galpha15 cells, with pre-incubation step
Format: cell-based
Conditions: read-out: potency of Sucralose (dose-response)
Protocol: In the subject assays the receptor or cells expressing same will be placed in a suitable environment that facilitates the receptor or cells to be used in the particular assay. For instance, in the exemplified calcium imaging assays cells which express hT1R2/hT1R3-HEK293 G[…]15 cells were seeded in 384-well-clear bottom plates (Fisher) at a density of ˜50,000 cells/well and grown overnight at 37 degrees C. However, it is anticipated that these cell density conditions and/or cell culture devices potentially may be altered.
On the day of the experiment, cells were loaded with a commercially available calcium indicator dye Fluo3AM (2 uM) (Invitrogen) in D-PBS (Invitrogen) using a Multidrop (Titertek). (Again while Fluo3AM is exemplified it is anticipated that other known and available calcium indicators can be substituted therefore). […] After 30 minutes of rest time at room temperature, Fluo3AM-loaded cell plate, a compound plate and a sweetener plate were loaded into a Fluorometric Imaging Plate Reader (FLIPR, Molecular Devices). […] Imaging was initiated with the acquisition of the baseline fluorescence for a period of 7 to 10 seconds, and then cells were stimulated on line with addition of 25 µl/well of the compound plate (pre-incubation step). […]

EC50 (cells pre-incubated with S2423 (50 uM or 25 uM final)): 11 µM
EC50 (without S2423): 53 µM
SMILES: OC[C@H]1O[C@H](O[C@]2(CCl)O[C@H](CCl)[C@@H](O)[C@@H]2O)[C@H](O)[C@@H](O)[C@H]1Cl [Sucralose]

Source: patent publication US20080305500A1, “NOVEL CELL-BASED ASSAYS FOR IDENTIFYING ENHANCERS OR INHIBITORS OF T1R TASTE RECEPTORS (T1R2/T1R3 SWEET) AND UMAMI (T1R1/T1R3 UMAMI) TASTE RECEPTORS” (Senomyx, Inc., priority 2007, published 2008)
